From publication PMC7204872, “The Biosynthesis of the Benzoxazole in Nataxazole Proceeds via an Unstable Ester and has Synthetic Utility” (Angewandte Chemie (International Ed. in English), 2020)

Tests used:
NatL2 [1] = target: T1, NatL2 (Streptomyces sp. Tu 6176, UniProt A0A022MRT4); assay: X-ray crystallography (soaked crystal); assay type: binding
T1 construct: N-terminal hexahistidine-tagged, expressed in E. coli; homodimer, structural Zn2+; residues 5-436 traced (C-terminal extension 405-436)
T1 sequence (A0A022MRT4 1-436): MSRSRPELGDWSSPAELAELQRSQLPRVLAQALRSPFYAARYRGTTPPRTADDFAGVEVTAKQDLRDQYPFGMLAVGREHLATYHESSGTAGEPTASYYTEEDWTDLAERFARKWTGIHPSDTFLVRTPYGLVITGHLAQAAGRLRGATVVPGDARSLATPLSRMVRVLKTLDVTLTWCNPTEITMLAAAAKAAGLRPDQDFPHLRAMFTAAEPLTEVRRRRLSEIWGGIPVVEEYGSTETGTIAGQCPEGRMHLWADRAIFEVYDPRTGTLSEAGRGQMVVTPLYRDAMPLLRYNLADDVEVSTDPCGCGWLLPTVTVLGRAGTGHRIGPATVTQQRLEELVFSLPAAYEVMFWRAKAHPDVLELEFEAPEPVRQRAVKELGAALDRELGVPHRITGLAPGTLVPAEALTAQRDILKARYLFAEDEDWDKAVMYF

NatL2 [2] = target: T1, NatL2; assay: X-ray crystallography, […] Å; assay type: binding; conditions: crystallised in the presence of ATP; density modelled as AMP; Lys418 from other monomer

## Nc1ncnc2c1ncn2[C@@H]1O[C@H](COP(=O)(O)OP(=O)(O)NP(=O)(O)O)[C@@H](O)[C@H]1O [AMPPNP]
NatL2 [1]; nucleotide site, binary complex and ternary with 3-HAA, no Mg2+ density
  X-ray crystallography (soaked crystal): These crystals were soaked with AMPPNP and the resulting complex was essentially identical

## Nc1ncnc2c1ncn2[C@@H]1O[C@H](COP(=O)(O)O)[C@@H](O)[C@H]1O [AMP]
NatL2 [2]
  X-ray crystallography, 1.9 Å: Residual electron density in both monomers was best modelled as AMP not ATP

## O=C(O)c1ccccc1O [SA]
NatL2 [1]; soak of AMP:3-HAA crystals, two SA molecules in subunit A, no AMP, SA1 in 3-HAA1 pocket, SA2 in second substrate pocket, not turned over
  X-ray crystallography (soaked crystal): In subunit A, two molecules of SA are bound but no AMP
